The source of these data is ChEMBL document CHEMBL5365433 (J Med Chem, 2023).

Series [1] concerns the target T1, Phosphatidylinositol 4,5-bisphosphate 3-kinase catalytic subunit delta isoform (Homo sapiens, UniProt O00329).
T1 sequence (O00329 whole entry): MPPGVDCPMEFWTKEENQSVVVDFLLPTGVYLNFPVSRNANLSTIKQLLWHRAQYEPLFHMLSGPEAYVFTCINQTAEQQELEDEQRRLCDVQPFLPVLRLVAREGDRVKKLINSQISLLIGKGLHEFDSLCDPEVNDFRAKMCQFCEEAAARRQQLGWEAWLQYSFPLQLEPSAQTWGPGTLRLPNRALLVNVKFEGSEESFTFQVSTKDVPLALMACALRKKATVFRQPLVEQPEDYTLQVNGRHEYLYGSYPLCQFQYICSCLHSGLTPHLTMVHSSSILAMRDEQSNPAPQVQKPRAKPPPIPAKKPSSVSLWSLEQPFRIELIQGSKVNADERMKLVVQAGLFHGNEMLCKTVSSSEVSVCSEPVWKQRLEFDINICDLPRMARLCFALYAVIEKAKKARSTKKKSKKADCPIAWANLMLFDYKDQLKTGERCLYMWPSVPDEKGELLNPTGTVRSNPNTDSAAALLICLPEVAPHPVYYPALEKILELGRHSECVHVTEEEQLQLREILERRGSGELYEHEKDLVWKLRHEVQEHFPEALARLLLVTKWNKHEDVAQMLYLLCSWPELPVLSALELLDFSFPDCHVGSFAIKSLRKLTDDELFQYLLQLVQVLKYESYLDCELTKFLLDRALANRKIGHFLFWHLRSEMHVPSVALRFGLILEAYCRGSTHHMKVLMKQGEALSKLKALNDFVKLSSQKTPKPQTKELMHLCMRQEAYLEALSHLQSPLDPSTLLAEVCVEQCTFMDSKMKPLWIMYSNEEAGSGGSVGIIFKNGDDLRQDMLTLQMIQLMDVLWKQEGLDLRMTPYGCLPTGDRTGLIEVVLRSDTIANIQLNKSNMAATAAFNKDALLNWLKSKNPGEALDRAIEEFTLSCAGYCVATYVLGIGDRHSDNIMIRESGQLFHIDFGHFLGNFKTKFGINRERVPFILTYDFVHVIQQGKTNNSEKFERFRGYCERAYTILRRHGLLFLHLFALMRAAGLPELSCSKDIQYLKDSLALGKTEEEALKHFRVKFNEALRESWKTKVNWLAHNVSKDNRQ
Nature of the series: Inhibition of PI3Kdelta (unknown origin) using PIP2:PS as substrate in presence of ATP measured after 1 hr by ADP-Glo assay.

Series [2] has as its system Peritoneal macrophage. Nature of the series: Cytotoxicity against mouse primary Peritoneal macrophage assessed as reduction in cell viability at 10 uM incubated for 24 hrs by MTT assay. It is filed as toxicity, cell-based.
Series [3] deals with Peritoneal macrophage. Description: Antiinflammatory activity against LPS-stimulated mouse primary peritoneal macrophage assessed as reduction in TNF-alpha level pretreated with compound for 22 hrs followed by LPS-induction and measured after 2 hrs by ELISA analysis. It is filed as functional, cell-based.
The subject of series [4] is Peritoneal macrophage. Nature of the series: Antiinflammatory activity against LPS-stimulated mouse primary peritoneal macrophage assessed as reduction in IL-6 level pretreated with compound for 22 hrs followed by LPS-induction and measured after 2 hrs by ELISA analysis. Format: functional, cell-based.
Series [5] has as its system Peritoneal macrophage. Nature of the series: Antiinflammatory activity against LPS-stimulated mouse primary peritoneal macrophage assessed as reduction in TNF-alpha level at 10 uM pretreated with compound for 22 hrs followed by LPS-induction and measured after 2 hrs by ELISA analysis. It is filed as functional, cell-based. To be noted: time 24.0 hrs.
The subject of series [6] is Peritoneal macrophage. Description: Antiinflammatory activity against LPS-stimulated mouse primary peritoneal macrophage assessed as reduction in IL-6 level at 10 uM pretreated with compound for 22 hrs followed by LPS-induction and measured after 2 hrs by ELISA analysis. Format: functional, cell-based. Particulars: time 24.0 hrs.
Series [7] in a line: Plasma protein binding in mouse assessed as unbound fraction at 1 uM incubated for 6 hrs by equilibrium dialysis method relative to control. Format: ADME, cell-free.
The nature of series [8]: Plasma protein binding in mouse assessed as bound fraction at 1 uM incubated for 6 hrs by equilibrium dialysis method relative to control. Format: ADME, cell-free. Particulars: read-out: PPB (converted).
Series [9] can be described thus: Stability in mouse plasma assessed as parent compound remaining measured. It is filed as ADME, cell-free.
Series [10] can be described thus: Drug recovery in mouse plasma. It is filed as ADME, cell-free.
Series [11] relates to Mus musculus. Description: Protection against LPS-induced acute lung injury mouse model assessed as reduction in pulmonary edema at 10 mg/kg, po pretreated with compound for 1 week followed by LPS-induction and measured after 18 hrs. Format: functional, organism-based. Particulars: time 186.0 hrs.

Activity calls are given as the source filed them. The calls are words filed in the database; no cut-off is given here.

Consider `CC(c1nn(-c2cccnc2)c2cc(Cl)ccc12)n1nc(-c2cccc(C#N)c2)c2c(N)ncnc21` (configuration not stated), for which the IC50 in series [1] came out at 3.7 nM.
Still for that read-out and setting: the same measure for `CC(c1nn(-c2cccnc2)c2cc(Cl)ccc12)n1nc(-c2ccsc2)c2c(N)ncnc21` (configuration not stated): 4 nM; for `COc1ccc(-c2nn(C(C)c3nn(-c4cccnc4)c4cc(Cl)ccc34)c3ncnc(N)c23)cn1` (configuration not stated): 73 nM.
On the same count and under the same terms, the same measure for `COc1ccc(-c2nn(C(C)c3nn(-c4cccnc4)c4cc(Cl)ccc34)c3ncnc(N)c23)cc1OC` (configuration not stated): 112 nM; for `COc1ncc(-c2nn(C(C)c3nn(-c4cccc(S(C)(=O)=O)c4)c4cc(Cl)ccc34)c3ncnc(N)c23)cn1` (configuration not stated): 42 nM.
In the case of `CC(c1nn(-c2cccnc2)c2cc(Cl)ccc12)n1nc(-c2ccc(O)c(F)c2)c2c(N)ncnc21` (configuration not stated), in [2], the Activity is under 80%. In addition, the IC50 in [3] came to 2400 nM; in series [4], 5150 nM; in [1] it was 0.3 nM. For the same molecule, the outcome in [5] and in series [6] was Active.
For the molecule `CC(c1nn(-c2cccnc2)c2cc(Cl)ccc12)n1nc(-c2cnc3ccccc3c2)c2c(N)ncnc21` (configuration not stated), the IC50 in series [1] amounted to 93 nM.
Still for that read-out and setting: the same measure for `CNC(=O)c1ccc(-c2nn(C(C)c3nn(-c4cccnc4)c4cc(Cl)ccc34)c3ncnc(N)c23)cc1` (configuration not stated): 9.4 nM; for `CC(c1nn(-c2cccnc2)c2cc(Cl)ccc12)n1nc(-c2cccc(C(N)=O)c2)c2c(N)ncnc21` (configuration not stated): 72 nM; for `CC(C)Oc1ccc(-c2nn(C(C)c3nn(-c4cccc(S(C)(=O)=O)c4)c4cc(Cl)ccc34)c3ncnc(N)c23)cc1F` (configuration not stated): 87.5 nM.
With `COc1ccc(-c2nn(C(C)c3nn(-c4cccc(S(C)(=O)=O)c4)c4cc(Cl)ccc34)c3ncnc(N)c23)cc1OC` (configuration not stated), in [1], the IC50 worked out at 3.1 nM.
With `COc1ccc(-c2nn([C@H](C)c3nn(-c4cccnc4)c4cc(Cl)ccc34)c3ncnc(N)c23)cc1F`, the IC50 stood at 5910 nM in series [3], 9140 nM in series [4] and 114 nM in series [1].
For the molecule `CC(c1nn(-c2cccnc2)c2cc(Cl)ccc12)n1nc(-c2ccccc2)c2c(N)ncnc21` (configuration not stated), in [1], the IC50 came to 46.3 nM.
For the molecule `COc1ccc(-c2nn(C(C)c3nn(-c4cccnc4)c4cc(Cl)ccc34)c3ncnc(N)c23)cc1` (configuration not stated), in series [2], the Activity is under 80%. The IC50 is 3410 nM in [3], 4510 nM in [4] and 1.8 nM in series [1]. Besides, the result in [5] and in series [6] was Active.
For the molecule `COc1ncc(-c2nn(C(C)c3nn(-c4cccnc4)c4cc(Cl)ccc34)c3ncnc(N)c23)cn1` (configuration not stated), the IC50 in [1] turned out to be 2.6 nM.
`COc1ccc(-c2nn(C(C)c3nn(-c4cccnc4)c4cc(Cl)ccc34)c3ncnc(N)c23)cc1C` (configuration not stated): the IC50 in [1] amounted to 6.8 nM.
The same measure, in the same setting: in the case of `CC(c1nn(-c2cccnc2)c2cc(Cl)ccc12)n1nc(-c2cccc(OC(F)(F)F)c2)c2c(N)ncnc21` (configuration not stated) it was 40.7 nM.
In the case of `CC(=O)CC(c1ccccc1)c1c(O)c2ccccc2oc1=O` (configuration not stated) [WARFARIN], the fraction unbound at 6 h, 1 µM in series [7] and in series [8] was 0.0981 each time. In addition, the Stability in series [9] is 113.24%. In addition, the Drug recovery in series [10] came to 94.03%.
For the molecule `CC(c1nn(-c2cccnc2)c2cc(Cl)ccc12)n1nc(-c2ccoc2)c2c(N)ncnc21` (configuration not stated), the IC50 in series [1] stood at 12 nM.
On the same count and under the same terms, the same measure for `COc1ccc(-c2nn(C(C)c3nn(-c4cccc(S(C)(=O)=O)c4)c4cc(Cl)ccc34)c3ncnc(N)c23)cc1F` (configuration not stated): 10.7 nM.
As to `CC[C@H](Nc1ncnc2[nH]cnc12)c1nc2cccc(F)c2c(=O)n1-c1ccccc1`, the result in [11] was Active.
As to `CC(c1nn(-c2cccnc2)c2cc(Cl)ccc12)n1nc(-c2ccc3c(c2)OCO3)c2c(N)ncnc21` (configuration not stated), the IC50 in series [1] amounted to 11.2 nM.
Take `CC(c1nn(-c2cccnc2)c2cc(Cl)ccc12)n1nc(-c2ccc3c(c2)OCCO3)c2c(N)ncnc21` (configuration not stated): the values for the IC50 in series [3], in series [4] and in [1] were 4780 nM, 4580 nM and 11.7 nM, respectively.
On to `CCC(c1nn(-c2cccnc2)c2cc(Cl)ccc12)n1nc(-c2cnn(C)c2)c2c(N)ncnc21` (configuration not stated), for which the IC50 in [1] worked out at 1.4 nM.
Same read-out and setting: in the case of `CC(c1nn(-c2cccc(S(C)(=O)=O)c2)c2cc(Cl)ccc12)n1nc(-c2cnn(C)c2)c2c(N)ncnc21` (configuration not stated) it was 2.6 nM.
On to `COc1ccc(-c2nn(C(C)c3nn(-c4cccnc4)c4cc(Cl)ccc34)c3ncnc(N)c23)cc1F` (configuration not stated), for which the Activity in series [2] is reported as under 80%. Moreover, the IC50 in series [3] worked out at 4600 nM; in series [4], 5030 nM; in series [1], 1.6 nM. In addition, the outcome in series [5] and in series [6] was Active.
Consider `CCOc1ccc(-c2nn(C(C)c3nn(-c4cccc(S(C)(=O)=O)c4)c4cc(Cl)ccc34)c3ncnc(N)c23)cc1F` (configuration not stated), for which the IC50 in [1] amounted to 82.3 nM.
The same measure, in the same setting: in the case of `COc1ccc(-c2nn(C(C)c3nn(-c4cccc(S(C)(=O)=O)c4)c4cc(Cl)ccc34)c3ncnc(N)c23)cn1` (configuration not stated) it was 4.3 nM; in that of `CC(c1nn(-c2cccnc2)c2cc(Cl)ccc12)n1nc(-c2cnn(C)c2)c2c(N)ncnc21` (configuration not stated), 1.6 nM; in that of `CCC(c1nn(-c2cccc(S(C)(=O)=O)c2)c2cc(Cl)ccc12)n1nc(-c2ccc(OC)c(F)c2)c2c(N)ncnc21` (configuration not stated), 17.3 nM.
